According to publication PMC10702058, “Phase I dose escalation study and pilot efficacy analysis of LXI-15029, a novel mTOR dual inhibitor, in Chinese subjects with advanced malignant solid tumors” (BMC Cancer, 2023):
“Also recorded” adds a separate entry of the source. Read-outs that look alike come from different tables or passages of the source.

Legend:
[1] = test system: human renal carcinoma, gastric cancer, breast cancer, and lung cancer xenografts; details: cited from earlier work
[2] = Plasma pharmacokinetics of LXI-15029 (LC-MS/MS, non-compartmental analysis); type: in vivo, human
Protocol: Blood samples for PK analysis of LXI-15029 were collected on day 1 (pre-dose, 20 min, 40 min, 1 h, 1.5 h, 2 h, 3 h, 4 h, 6 h, 8 h, 12 h, 24 h, and 48 h), cycle 1 day 8 (pre-dose), cycle 1 day 15 (pre-dose), and cycle 1 day 28 (pre-dose, 20 min, 40 min, 1 h, 1.5 h, 2 h, 3 h, 4 h, 6 h, 8 h, and 12 h). The blood samples were stored at -70°C until testing. The concentration of LXI-15029 in plasma was measured using the validated liquid chromatography-tandem mass spectrometry (LC–MS/MS) method. The concentration–time information of LXI-15029 was summarized based on pre-dose and post-dose data of each patient, to explore the linearity of exposure with single dose and steady-state situations, the time to reach steady state and the predictability of single to multiple doses PK. PK parameters were calculated separately for single and repeated doses using descriptive statistics. PK analysis was performed by Covance Central Laboratory using the validated software Phoenix WinNonlin Version 8.1 (Pharsight, Mountain View, CA). A standard non-compartmental method was used to calculate the peak plasma concentration (Cmax), time to reach the Cmax (tmax), the total area under the concentration–time curve (AUC0-∞), and the elimination half-life (t1/2).

[3] = 150-mg BID group, compared with preclinical data
[4] = human, plasma, oral, multiple dose, cycle 1 day 28, 10 mg BID (n = 3), geometric mean (coefficient of variation)
[5] = human, plasma, oral, multiple dose, cycle 1 day 28, 20 mg BID (n = 3), geometric mean (coefficient of variation)
[6] = human, plasma, oral, multiple dose, cycle 1 day 28, 40 mg BID (n = 3), geometric mean (coefficient of variation)
[7] = human, plasma, oral, multiple dose, cycle 1 day 28, 60 mg BID (n = 4), geometric mean (coefficient of variation)

For CNC(=O)c1cccc(-c2ccc3c(N4C5CCC4COC5)nc(N4CCOC[C@@H]4C)nc3n2)c1 [LXI-15029], the “dose dependence of antitumor activity” value ([1]; dose range of 5–40 mg/kg, in vivo preclinical data) is listed as “dose-dependent”, the “antitumor activity in xenograft models” value ([1]; tumors with abnormal regulation in the mTOR signaling pathway, ref [25], [26]) is listed as “selective antitumor effect; also recorded: selective antitumor activity” and the “increase of Cmax and AUC versus dose proportionality” value ([2]; 10 to 150 mg, single dose day 1 and cycle 1 day 28) is listed as “greater than the dose proportionality”. The “exposure relative to the NOAEL in dogs” value [2, 3] was “fivefold higher”, the “exposure relative to the highest non-severely toxic dose (HNSTD) found in rats” value [2, 3] was “threefold higher” and the “Cmax ss versus dose” value ([2]; cycle 1 day 28, 10 to 150 mg) was “increased with the dose increase”. The “Cmin ss, Cav ss, and AUCss versus dose” value ([2]; cycle 1 day 28, 10 to 150 mg, except for 80 mg) was “increased with the dose increase”, the “exposure (Cmax and AUC) versus dose” value ([2]; day 1, 10 to 150 mg, except for 80 mg) was “increased with the dose increase” and the concentration at 28 day ([2]; human, plasma, oral, 10 mg BID, multiple dose, cycle 1 day 28, 10 mg BID (n = 3), geometric mean (coefficient of variation), read-out: Cav ss) was 15.9 ng/mL. It also gave a Tmax at 28 day ([2]; human, plasma, oral, 10 mg, multiple dose, cycle 1 day 28, 10 mg BID (n = 3), median (min, max)) of 1.02 h, a half-life ([2]; human, plasma, oral, 10 mg, single dose, cycle 1 day 1, 10 mg BID (n = 3), arithmetic mean ± standard deviation, read-out: t1/2 (converted)) of 0.95 ± 0.205 h and a Tmax ([2]; human, plasma, oral, 10 mg, single dose, cycle 1 day 1, 10 mg BID (n = 3), median (min, max), read-out: Tmax) of 0.98 h. For the same compound, the concentration at 28 day ([2]; human, plasma, oral, 20 mg BID, multiple dose, cycle 1 day 28, 20 mg BID (n = 3), geometric mean (coefficient of variation), read-out: Cav ss) was 71.9 ng/mL, the concentration at 28 day ([2]; human, plasma, oral, 20 mg BID, multiple dose, cycle 1 day 28, 20 mg BID (n = 3), geometric mean (coefficient of variation), read-out: Cmin ss) was 1.61 ng/mL and the Tmax at 28 day ([2]; human, plasma, oral, 20 mg, multiple dose, cycle 1 day 28, 20 mg BID (n = 3), median (min, max)) was 1.47 h. The half-life ([2]; human, plasma, oral, 20 mg, single dose, cycle 1 day 1, 20 mg BID (n = 3), arithmetic mean ± standard deviation, read-out: t1/2 (converted)) was 1.47 ± 0.268 h, the Tmax ([2]; human, plasma, oral, 20 mg, single dose, cycle 1 day 1, 20 mg BID (n = 3), median (min, max), read-out: Tmax) was 1 h and the concentration at 28 day ([2]; human, plasma, oral, 40 mg BID, multiple dose, cycle 1 day 28, 40 mg BID (n = 3), geometric mean (coefficient of variation), read-out: Cav ss) was 139 ng/mL. It also gave a concentration at 28 day ([2]; human, plasma, oral, 40 mg BID, multiple dose, cycle 1 day 28, 40 mg BID (n = 3), geometric mean (coefficient of variation), read-out: Cmin ss) of 3.74 ng/mL, a Tmax at 28 day ([2]; human, plasma, oral, 40 mg, multiple dose, cycle 1 day 28, 40 mg BID (n = 3), median (min, max)) of 0.67 h and a half-life ([2]; human, plasma, oral, 40 mg, single dose, cycle 1 day 1, 40 mg BID (n = 3), arithmetic mean ± standard deviation, read-out: t1/2 (converted)) of 1.13 ± 0.324 h. For the same compound, the AUC(0-t) ([2]; human, plasma, oral, 40 mg, single dose, cycle 1 day 1, 40 mg BID (n = 3), geometric mean (coefficient of variation)) was 1680 ng·h/mL, the Tmax ([2]; human, plasma, oral, 40 mg, single dose, cycle 1 day 1, 40 mg BID (n = 3), median (min, max), read-out: Tmax) was 0.68 h and the concentration at 28 day ([2]; human, plasma, oral, 60 mg BID, multiple dose, cycle 1 day 28, 60 mg BID (n = 4), geometric mean (coefficient of variation), read-out: Cav ss) was 477 ng/mL. For the same compound, the concentration at 28 day ([2]; human, plasma, oral, 60 mg BID, multiple dose, cycle 1 day 28, 60 mg BID (n = 4), geometric mean (coefficient of variation), read-out: Cmin ss) was 35 ng/mL, the Tmax at 28 day ([2]; human, plasma, oral, 60 mg, multiple dose, cycle 1 day 28, 60 mg BID (n = 4), median (min, max)) was 0.98 h and the half-life ([2]; human, plasma, oral, 60 mg, single dose, cycle 1 day 1, 60 mg BID (n = 4), arithmetic mean ± standard deviation, read-out: t1/2 (converted)) was 2 ± 0.599 h. It also gave a Tmax ([2]; human, plasma, oral, 60 mg, single dose, cycle 1 day 1, 60 mg BID (n = 4), median (min, max), read-out: Tmax) of 1.25 h, a concentration at 28 day ([2]; human, plasma, oral, 80 mg BID, multiple dose, cycle 1 day 28, 80 mg BID (n = 4), geometric mean (coefficient of variation), read-out: Cav ss) of 435 ng/mL and a concentration at 28 day ([2]; human, plasma, oral, 80 mg BID, multiple dose, cycle 1 day 28, 80 mg BID (n = 4), geometric mean (coefficient of variation), read-out: Cmin ss) of 6.41 ng/mL. It also gave a Tmax at 28 day ([2]; human, plasma, oral, 80 mg, multiple dose, cycle 1 day 28, 80 mg BID (n = 4), median (min, max)) of 1.08 h, a half-life ([2]; human, plasma, oral, 80 mg, single dose, cycle 1 day 1, 80 mg BID (n = 4), arithmetic mean ± standard deviation, read-out: t1/2 (converted)) of 1.33 ± 0.174 h and a Tmax ([2]; human, plasma, oral, 80 mg, single dose, cycle 1 day 1, 80 mg BID (n = 4), median (min, max), read-out: Tmax) of 0.87 h. For the same compound, the concentration at 28 day ([2]; human, plasma, oral, 110 mg BID, multiple dose, cycle 1 day 28, 110 mg BID (n = 3), geometric mean (coefficient of variation), read-out: Cav ss) was 1080 ng/mL, the concentration at 28 day ([2]; human, plasma, oral, 110 mg BID, multiple dose, cycle 1 day 28, 110 mg BID (n = 3), geometric mean (coefficient of variation), read-out: Cmin ss) was 152 ng/mL and the Tmax ([2]; human, plasma, oral, 110 mg, multiple dose, cycle 1 day 28, 110 mg BID (n = 3), median (min, max), read-out: Tmax ss) was 0.67 h. The half-life ([2]; human, plasma, oral, 110 mg, single dose, cycle 1 day 1, 110 mg BID (n = 3), arithmetic mean ± standard deviation, read-out: t1/2 (converted)) was 1.48 ± 0.531 h, the Tmax ([2]; human, plasma, oral, 110 mg, single dose, cycle 1 day 1, 110 mg BID (n = 3), median (min, max), read-out: Tmax) was 0.7 h and the concentration at 28 day ([2]; human, plasma, oral, 150 mg BID, multiple dose, cycle 1 day 28, 150 mg BID (n = 4), geometric mean (coefficient of variation), read-out: Cav ss) was 2120 ng/mL. For the same compound, the concentration at 28 day ([2]; human, plasma, oral, 150 mg BID, multiple dose, cycle 1 day 28, 150 mg BID (n = 4), geometric mean (coefficient of variation), read-out: Cmin ss) was 452 ng/mL, the Tmax ([2]; human, plasma, oral, 150 mg, multiple dose, cycle 1 day 28, 150 mg BID (n = 4), median (min, max), read-out: Tmax ss) was 0.98 h and the half-life ([2]; human, plasma, oral, 150 mg, single dose, cycle 1 day 1, 150 mg BID (n = 4), arithmetic mean ± standard deviation, read-out: t1/2 (converted)) was 1.94 ± 0.706 h. The Tmax ([2]; human, plasma, oral, 150 mg, single dose, cycle 1 day 1, 150 mg BID (n = 4), median (min, max), read-out: Tmax) was 0.82 h, the half-life ([2]; human, plasma, oral, after multiple dosings, read-out: arithmetic mean of t1/2 across dose cohorts) was 1.13 to 3.26 h and the half-life ([2]; human, plasma, oral, after single dosing, read-out: arithmetic mean of t1/2 across dose cohorts) was 0.95 to 2 h. It also gave a Tmax ([2]; human, plasma, oral, cycle 1 day 28, dose range 10 to 150 mg, read-out: median range of Tmax ss) of 0.67 to 1.47 h, a Tmax ([2]; human, plasma, oral, single dose on day 1, across dose groups, read-out: median range of Tmax) of 0.68 to 1.25 h and an AUC [2, 4] of 191 ng·h/mL. For the same compound, the Cmax at 28 day [2, 4] was 115 ng/mL, the AUC [2, 5] was 863 ng·h/mL and the Cmax at 28 day [2, 5] was 350 ng/mL. It also gave an AUC [2, 6] of 1670 ng·h/mL, a Cmax at 28 day [2, 6] of 1010 ng/mL and an AUC [2, 7] of 5730 ng·h/mL. For the same compound, the Cmax at 28 day [2, 7] was 1690 ng/mL.
